Data from ChEMBL document CHEMBL4739717, “Methods of treating cartilage disorders through inhibition of clk and dyrk” (2020).

Legend:
[1] = Induction of chondrogenesis in human MSC assessed as maximum activity at 100 nM incubated for 6 days by rhodamine B and Nile red staining based imaging analysis relative to control; format: functional; details: BMMSC, 144 h, time 6 day
[2] = Inhibition of IL1-beta induced MMP3 expression levels in human chondrocytes assessed as MMP3 levels incubated for 2hrs followed by IL1-beta stimulation and measured after overnight incubation by LANCE assay; format: functional, cell-based; details: Chondrocyte
[3] = target: Dual specificity tyrosine-phosphorylation-regulated kinase 1A (Homo sapiens, UniProt Q13627); test: Inhibition of recombinant DYRK1A (unknown origin) using Ser/Thr 18 peptide as substrate incubated for 1 hr in presence of ATP by FRET assay
[4] = Effect on Wnt signaling pathway in human SW480 cells harbouring TCF/LEF luciferase reporter gene and SP5-Luc reporter gene incubated for 36 to 48 hrs by luminescence assay; format: cell-based
[5] = Induction of chondrogenesis in human MSC assessed as maximum activity at 300 nM incubated for 6 days by rhodamine B and Nile red staining based imaging analysis relative to control; format: functional; details: BMMSC, 144 h, time 6 day
[6] = Induction of chondrogenesis in human MSC assessed as incubated for 6 days by rhodamine B and Nile red staining based imaging analysis; format: functional; details: bmmsc

Structure (SMILES)	Emax at 0.1 µM [1] [%]	EC50 [2] [nM]	EC50 [3] [nM]	EC50 [4] [nM]	Emax at 0.3 µM [5] [%]	EC50 [6] [nM]
CCNCc1cncc(-c2cnc3[nH]nc(-c4cc5c(-c6cc(F)cc(CNS(C)(=O)=O)c6)cncc5[nH]4)c3c2)c1	42.8	3000	6	> 10000	–	–
CN1CCN(c2cncc3[nH]c(-c4n[nH]c5ccc(-c6cccnc6)cc45)nc23)CC1	–	–	2	52	80.6	–
Nc1cncc(-c2cc3c(-c4cc5c(-c6ccccc6F)cncc5[nH]4)n[nH]c3cn2)c1	–	–	40	1630	15.5	–
O=C(Nc1cncc(-c2cnc3[nH]nc(-c4cc5c(N6CCCCC6)nccc5[nH]4)c3c2)c1)C1CC1	–	–	31	3850	42.5	–
CC(C)(C)C(=O)Nc1cncc(-c2cnc3[nH]nc(-c4cc5c(-c6ccncc6)cncc5[nH]4)c3c2)c1	–	–	5	> 10000	33.6	–
CC(C)C(=O)Nc1cncc(-c2cc3c(-c4cc5c(-c6ccncc6)nccc5[nH]4)n[nH]c3cn2)c1	–	–	45	> 10000	32.1	–
CC(C)Nc1cncc(-c2cnc3[nH]nc(-c4cc5c(N6CCCCC6)nccc5[nH]4)c3c2)c1	–	–	70	3410	33.6	–
O=C(Nc1cncc(-c2cnc3[nH]nc(-c4nc5c(-c6cccc(F)c6)cncc5[nH]4)c3c2)c1)N1CCOCC1	–	–	14	9	96.8	–
c1cncc(-c2ccc3[nH]nc(-c4cc5c(-c6cccnc6)cncc5[nH]4)c3c2)c1	58.2	1.1	1	310	–	100
CC(C)OCCCNC(=O)c1n[nH]c2ccc(-c3cccnc3)cc12	92.5	10.8	–	464	–	–
CC(C)C(=O)Nc1cncc(-c2cc3c(-c4cc5cnccc5[nH]4)n[nH]c3cn2)c1	61.2	–	1	399	–	30
c1cc2[nH]c(-c3n[nH]c4ccc(-c5cncc(CN6CCCCC6)c5)cc34)cc2cn1	122	–	4	685	–	100
CC(C)Nc1cncc(-c2cnc3[nH]nc(-c4nc5c(-c6cccc(F)c6)cncc5[nH]4)c3c2)c1	504	–	20	1.2	–	30
O=C(Nc1cncc(-c2ccc3[nH]nc(-c4nc5c(-c6ccc(Cl)s6)ccnc5[nH]4)c3n2)c1)C1CCC1	102	–	28	354	–	10
O=C1COc2cccc(c2)-c2cncc3[nH]c(nc23)-c2n[nH]c3ccc(cc23)-c2cncc(c2)N1	185	37.4	–	86.8	–	100
Cn1cc(-c2ccc3[nH]nc(-c4cc5c(-c6cccnc6)cncc5[nH]4)c3c2)cn1	65.2	–	53	250	–	30
CC(C)Nc1cncc(-c2ccc3[nH]nc(-c4nc5c(-c6ccoc6)ccnc5[nH]4)c3n2)c1	64.2	–	26	298	–	100
Nc1cncc(-c2cc3c(-c4cc5c(N6CCCCC6)cncc5[nH]4)n[nH]c3cn2)c1	93.5	–	6	2960	–	30
CN(C)CCNc1cc(F)cc(-c2cccc3[nH]c(-c4n[nH]c5cnc(-c6cncc(N)c6)cc45)cc23)c1	180	–	23	407	–	100
O=C(Nc1cncc(-c2cnc3[nH]nc(-c4nc5c(-c6ccoc6)cncc5[nH]4)c3c2)c1)c1ccccc1	110	–	30	51	–	100

Structure (SMILES)	Emax at 0.1 µM [1] [%]	EC50 [2] [nM]	EC50 [3] [nM]	EC50 [4] [nM]	Emax at 0.3 µM [5] [%]	EC50 [6] [nM]
O=C1CCc2cccc(c2)-c2cncc3[nH]c(nc23)-c2n[nH]c3ccc(cc23)-c2cncc(c2)N1	225	3000	–	51.8	–	50
O=C(Nc1cncc(-c2cc3c(-c4cc5c(-c6cccnc6)cccc5[nH]4)n[nH]c3cn2)c1)C1CC1	308	–	34	330	–	100
CC(C)(C)CC(=O)Nc1cncc(-c2cc3c(-c4cc5cnccc5[nH]4)n[nH]c3cn2)c1	58.8	–	3	1890	–	10
c1cncc(-c2cc3c(-c4cc5c(-c6cccnc6)cncc5[nH]4)n[nH]c3cn2)c1	76.4	–	17	1340	–	100
CCCCC(=O)Nc1cncc(-c2ccc3[nH]nc(-c4cc5c(-c6ccoc6)cncc5[nH]4)c3c2)c1	122	–	13	915	–	30
c1cncc(-c2cc3c(-c4nc5ccccc5[nH]4)n[nH]c3cn2)c1	80.5	–	72	20.1	–	30
Fc1ccccc1-c1cncc2[nH]c(-c3n[nH]c4ncc(-c5cn[nH]c5)cc34)cc12	51.1	–	20	375	–	100
O=C(Cc1ccccc1)Nc1cncc(-c2ccc3[nH]nc(-c4nc5c(-c6cccc(F)c6)cncc5[nH]4)c3c2)c1	124	–	24	23	–	100
CCC(=O)Nc1cncc(-c2cnc3[nH]nc(-c4cc5c(-c6cccc(F)c6)cncc5[nH]4)c3c2)c1	113	–	13	246	–	10
O=C(Nc1cncc(-c2cnc3[nH]nc(-c4cc5c(-c6cccs6)nccc5[nH]4)c3c2)c1)C1CCC1	82.2	–	46	473	–	100
Cc1ccncc1-c1cc2c(-c3nc4c(-c5cc(F)cc(CNS(C)(=O)=O)c5)cccc4[nH]3)n[nH]c2cn1	81.8	–	58	30.4	–	30
CN(C)CCOc1cncc(-c2ccc3[nH]nc(-c4nc5c(-c6cccs6)cccc5[nH]4)c3n2)c1	142	–	41	3110	–	10
Cc1cn(-c2nccc3[nH]c(-c4n[nH]c5ccc(-c6cncc(NC(=O)CC(C)C)c6)nc45)nc23)cn1	69.3	–	28	2900	–	30
Cc1cn(-c2ccnc3[nH]c(-c4n[nH]c5ccc(-c6cncc(NC(=O)C7CCC7)c6)nc45)nc23)cn1	69.1	–	20	> 10000	–	300
Cc1ncc(-c2cnc3[nH]nc(-c4nc5c(-c6cccc(F)c6)nccc5[nH]4)c3c2)n1C	152	–	5	12.5	–	100
Cc1cn(-c2ccnc3[nH]c(-c4n[nH]c5ccc(-c6cncc(NC(=O)C(C)(C)C)c6)nc45)nc23)cn1	70.2	–	22	> 10000	–	10
CCCCC(=O)Nc1cncc(-c2ccc3[nH]nc(-c4cc5c(N6CCCCC6)cccc5[nH]4)c3n2)c1	68.6	–	40	572	–	100
Cc1ccc(-c2cncc3[nH]c(-c4n[nH]c5cnc(-c6cncc(NC(=O)C7CCC7)c6)cc45)nc23)s1	231	–	12	10.1	–	100
CCCCC(=O)Nc1cncc(-c2cnc3[nH]nc(-c4cc5c(-c6ccncc6)cncc5[nH]4)c3c2)c1	70.4	–	17	> 10000	–	10
